Assay results: PubChem BioAssay (NCI)
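Values below derive from 48-hour exposures of cells grown in 96-well plates, with endpoints linearly interpolated between the two concentrations bracketing the appropriate inhibition level. GI50 is the concentration that inhibits growth by half. Definition used: TGI = concentration required for complete inhibition of growth.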

How the values were obtained:
Assay in all cases: DTP human tumour cell line panel, 48 h
[1] = tested on: HCT-15 colon
[2] = tested on: HL-60(TB) leukemia
[3] = tested on: LOX IMVI melanoma
[4] = tested on: MALME-3M melanoma
[5] = tested on: NCI-H522 lung
[6] = tested on: RXF 393 renal
[7] = tested on: COLO 205 colon
[8] = tested on: DU-145 prostate
[9] = tested on: MDA-N
[10] = tested on: NCI-H226 lung
[11] = tested on: NCI/ADR-RES ovarian
[12] = tested on: A498 renal

`C1CCC(OCc2nnn3c2CCC3)OC1` (configuration not stated) gave a TGI [1] of over 100 µM, a TGI [2] of over 100 µM and a TGI [3] of over 100 µM. For the same compound, the TGI [4] was over 100 µM, the TGI [5] was over 100 µM and the TGI [6] was over 100 µM.
In the case of `Cc1ccc(S(=O)(=O)N2c3ccccc3[C@H]3CCc4c([nH]c5ccccc45)[C@H]32)cc1`, the TGI [7] is reported as over 100 µM, the TGI [8] is reported as over 100 µM and the TGI [3] is reported as over 100 µM. The TGI [9] was over 100 µM, the TGI [10] was over 100 µM and the TGI [11] was over 100 µM. The TGI [6] was over 100 µM.
In the case of `CC(C)OC(=O)Nc1cccc(Cl)c1`, the TGI [7] is reported as over 100 µM, the TGI [8] is reported as over 100 µM and the TGI [1] is reported as over 100 µM. The TGI [2] was over 100 µM, the TGI [3] was over 100 µM and the TGI [9] was over 100 µM. For the same compound, the TGI [10] was over 100 µM, the TGI [11] was over 100 µM and the TGI [6] was over 100 µM.
Compound `Nc1nc(Cl)cc(NCCCNc2cc(Cl)nc(N)n2)n1` has a TGI [12] of over 100 µM, a TGI [7] of over 100 µM and a TGI [1] of over 100 µM. It also gave a TGI [2] of over 100 µM, a TGI [3] of over 100 µM and a TGI [4] of over 100 µM. For the same compound, the TGI [10] was over 100 µM and the TGI [6] was over 100 µM.
In the case of `Cn1cc(-c2csc(-c3cn(C)c4ccc(Br)cc34)n2)c2cnccc21`, the GI50 [12] is reported as 1.78 µM, the TGI [12] is reported as 3.67 µM and the GI50 [8] is reported as 1.74 µM. It also gave a TGI [8] of 3.17 µM, a GI50 [1] of 1.75 µM and a TGI [1] of 3.25 µM. It also gave a GI50 [2] of 1.48 µM, a TGI [2] of 3.31 µM and a GI50 [4] of 1.95 µM. The TGI [4] was 3.48 µM, the GI50 [5] was 1.76 µM and the TGI [5] was 3.44 µM. The GI50 [11] was 2.07 µM, the TGI [11] was 3.91 µM and the GI50 [6] was 1.7 µM. For the same compound, the TGI [6] was 3.2 µM.
Work on `CS/C(C#N)=C(\C#N)SC` yielded a TGI [12] of 47.7 µM, a TGI [7] of over 100 µM and a TGI [8] of 40.7 µM. It also gave a TGI [1] of 5.95 µM, a TGI [2] of 6.39 µM and a TGI [3] of over 100 µM. For the same compound, the TGI [4] was 30.1 µM, the TGI [10] was 5.92 µM and the TGI [5] was 3.75 µM. For the same compound, the TGI [11] was over 100 µM and the TGI [6] was 5.11 µM.
In the case of `c1ccc(CSC2(SCc3ccccc3)CCCC2)cc1`, the TGI [12] is reported as over 10 µM, the TGI [7] is reported as over 10 µM and the TGI [8] is reported as over 10 µM. For the same compound, the TGI [1] was over 10 µM, the TGI [2] was over 10 µM and the TGI [3] was over 10 µM. It also gave a TGI [4] of over 10 µM, a TGI [9] of over 10 µM and a TGI [10] of over 10 µM. For the same compound, the TGI [5] was over 10 µM, the TGI [11] was over 10 µM and the TGI [6] was over 10 µM.
`CN1C(=O)CN2C(Cl)(Cl)C2(c2ccccc2F)c2cc([N+](=O)[O-])ccc21` (configuration not stated) gave a TGI [7] of over 100 µM, a TGI [1] of over 100 µM and a TGI [3] of over 100 µM. It also gave a TGI [4] of 95.8 µM, a TGI [10] of 92.5 µM and a TGI [5] of over 100 µM. It also gave a TGI [6] of 66 µM.
`CC(N)C(=O)OCN1C(=O)C2C3C=CC(C2C1=O)C1C2C(=O)N(COC(=O)C(C)N)C(=O)C2C31` (configuration not stated) was tested, and the TGI [7] was 35.1 µM, the TGI [1] was 37.9 µM and the TGI [2] was 62.2 µM. For the same compound, the TGI [3] was 35.8 µM, the TGI [10] was over 100 µM and the TGI [6] was 38.7 µM.
`Cc1cccc(O)c1-c1nnc(CCCCCCCCc2nnc(-c3c(C)cccc3O)n2N)n1N` gave a TGI [12] of over 100 µM, a TGI [7] of over 31.6 µM and a TGI [8] of over 100 µM. It also gave a TGI [1] of over 100 µM, a TGI [2] of over 100 µM and a TGI [3] of over 100 µM. It also gave a TGI [4] of over 100 µM, a TGI [9] of over 100 µM and a TGI [10] of over 100 µM. The TGI [5] was 97.2 µM.
`O=c1oc2ccccc2n1P(=O)(n1c(=O)oc2ccccc21)n1c(=O)oc2ccccc21` was tested, and the TGI [12] was over 100 µM, the TGI [7] was over 100 µM and the TGI [2] was over 100 µM. For the same compound, the TGI [3] was over 100 µM, the TGI [4] was over 100 µM and the TGI [10] was over 100 µM. It also gave a TGI [5] of over 100 µM and a TGI [6] of over 100 µM.
`C[C@H]1C(=O)O[C@@H]1[C@H]1COC(C)(C)O1` showed a TGI [12] of over 100 µM, a TGI [1] of over 100 µM and a TGI [2] of over 100 µM. It also gave a TGI [9] of over 100 µM, a TGI [10] of over 100 µM and a TGI [11] of over 100 µM. For the same compound, the TGI [6] was over 100 µM.
For `NC(=O)c1ccc(NS(=O)(=O)c2ccc(N)cc2)nc1`, the TGI [12] was over 100 µM, the TGI [7] was over 100 µM and the TGI [8] was over 100 µM. The TGI [1] was over 100 µM, the TGI [2] was over 100 µM and the TGI [3] was over 100 µM. The TGI [4] was over 100 µM, the TGI [9] was over 100 µM and the TGI [10] was over 100 µM. The TGI [11] was over 100 µM.
